Key:
[1] = target: cyclic nucleotide phosphodiesterase; assay: Phosphodiesterase inhibitory activity (cyclic AMP hydrolysis); format: biochemical; conditions: read-out: IC50 (50% inhibition of cyclic nucleotide phosphodiesterase activity); cyclic AMP 0.10-1.0 μM, pH 7.4
adult mongrel dogs = assay: Cardiotonic activity in anesthetized dogs (myocardial contractile force, i.v.); format: in vivo; conditions: Canis lupus familiaris, iv, vs pretreatment control, read-out: CF: Percent increase in cardiac force; for change in vivo at 0.47 mg/kg: i.v. dose 0.47 mpk; for change in vivo at 1.87 mg/kg: i.v. dose 1.87 mpk; for change in vivo at 0.075 mg/kg: i.v. dose 0.075 mpk
Protocol: The cardiotonic activity of the compounds was determined in accordance with the method of Alousi, A. A., et al., J. Cir. Res. 45, 666 (1979). Basically, adult mongrel dogs were anesthetized with sodium pentobarbital and artificially respired. Arterial pressure was recorded via a femoral artery and the pressure pulse used to trigger a cardiotachometer for heart rate. Left ventricular pressure was measured with a Millar catheter and dP/dt was derived. Cardiac output was determined by measuring ascending aortic blood flow with an electromagnetic flow probe and myocardial contractile force was measured with a Walton Brodie strain gauge sutured to the right ventricle. Lead II EKG was also recorded. A standard does of dopamine was administered to assess myocardial responsiveness. Test compounds were administered by i.v. infusion or bolus administration and the effects on cardiovascular parameters were determined. Dose-related effects of the test compound on BP, HR, dP/dt max., C.F. and C.O. were compared to pretreatment control values and expressed as a percentage change.

Row | IC50 [1] [µM] | Structure (SMILES) | change in vivo at 0.47 mg/kg (adult mongrel dogs) [%] | change in vivo at 1.87 mg/kg (adult mongrel dogs) [%] | change in vivo at 0.075 mg/kg (adult mongrel dogs) [%]
1 | 5 | CC1CC(=O)NN=C1c1ccc2c(c1)NC(=O)C(C)O2 (centres unmarked) [Example 26, 6-(3,4-Dihydro-2-methyl-3-oxo-1,4(2H)-benzoxazin-6-yl)-2,3,4,5-tetrahydro-5-methylpyridazin-3-one] | 156 |  | 
2 |  | CCCCCN1N=C(c2ccc3c(c2)N(S(C)(=O)=O)CCO3)CCC1=O [Example 10, 6-(3,4-Dihydro-4-methanesulfonyl-1,4(2H)-benzoxazin-6-yl)-2,3,4,5-tetrahydro-2-pentylpyridazin-3-one] |  | 18 | 
3 | 14 | CC1Oc2ccc(C3=NNC(=O)CC3)cc2NC1=O (racemic) [Example 24, 6-(3,4-Dihydro-2-methyl-3-oxo-1,4(2H)-benzoxazin-6-yl)-2,3,4,5-tetrahydropyridazin-3-one] | 54 |  | 
4 | 13 | CC1Oc2ccc(C3=NNC(=O)CC3)cc2N(C)C1=O (racemic) [Example 25, 6-(3,4-Dihydro-2,4-dimethyl-3-oxo-1,4(2H)-benzoxazin-6-yl)-2,3,4,5-tetrahydropyridazin-3-one] | 31 |  | 
5 | 4 | CC1CC(=O)NN=C1c1ccc2c(c1)N(S(C)(=O)=O)CCO2 (racemic) [Example 17, 6-(3,4-Dihydro-4-methanesulfonyl-1,4(2H)-benzoxazin-6-yl)-2,3,4,5-tetrahydro-5-methylpyridazin-3-one] |  | 62 | 
6 | 8 | CC1CNc2cc(C3=NNC(=O)CC3)ccc2O1 (racemic) [Example 18, 6-(3,4-Dihydro-2-methyl-1,4(2H)-benzoxazin-6-yl)-2,3,4,5-tetrahydropyridazin-3-one] | 50 |  | 
7 | 38 | Cc1cc2c(cc1C1=NNC(=O)CC1C)N(C)C(=O)CO2 (racemic) [Example 31, 6-(3,4-Dihydro-4,7-dimethyl-3-oxo-1,4(2H)-benzoxazin-6-yl)-2,3,4,5-tetrahydro-5-methylpyridazin-3-one] | 33 |  | 
8 | 24 | CC1CC(=O)NN=C1c1ccc2c(c1)N(C(C)C)C(=O)C(C)O2 (centres unmarked) [Example 36, 6-(3,4-Dihydro-2-methyl-4-(1-methylethyl)-3-oxo-1,4(2H)-benzoxazin-6-yl)-2,3,4,5-tetrahydro-5-methylpyridazin-3-one] | 40 |  | 
9 |  | O=C1CCC(c2ccc3c(c2)NCCO3)=NN1 [Example 12, 6-(3,4-Dihydro-1,4(2H)-benzoxazin-6-yl)-2,3,4,5-tetrahydropyridazin-3-one] |  | 92 | 
10 | 8 | CC1CC(=O)NN=C1c1ccc2c(c1)N(C1CCCC1)C(=O)C(C)O2 (centres unmarked) [Example 37, 6-(3,4-Dihydro-4-cyclopentyl-2-methyl-3-oxo-1,4(2H)-benzoxazin-6-yl)-2,3,4,5-tetrahydro-5-methylpyridazin-3-one] | 4 |  | 
11 | 31 | Cc1cc2c(c(C3=NNC(=O)CC3)c1)OCC(=O)N2 [Example 38, 6-(3,4-Dihydro-6-methyl-3-oxo-1,4(2H)-benzoxazin-8-yl)-2,3,4,5-tetrahydropyridazin-3-one] | 24 |  | 
12 | 7 | Cc1cc(C2=NNC(=O)CC2C)c2c(c1)N(C)C(=O)CO2 (centres unmarked) [Example 41, 6-(3,4-Dihydro-4,6-dimethyl-3-oxo-1,4(2H)-benzoxazin-8-yl)-2,3,4,5-tetrahydro-5-methylpyridan-3-one] | 60 |  | 
13 | 0.3 | CC1CC(=O)NN=C1c1ccc2c(c1)OCC(=O)N2 (racemic) [Example 46, 6-(3,4-Dihydro-3-oxo-1,4(2H)-benzoxazin-7-yl)-2,3,4,5-tetrahydro-5-methylpyridazin-3-one] |  |  | 130
14 | 35 | Cc1cc2c(cc1C1=NNC(=O)CC1)OCC(=O)N2C [Example 43, 6-(3,4-Dihydro-4,6-dimethyl-3-oxo-1,4(2H)-benzoxazin-7-yl)-2,3,4,5-tetrahydropyridazin-3-one] | 104 |  | 
15 | 100 | CN1N=C(c2ccc3c(c2)N(S(C)(=O)=O)CCO3)CCC1=O [Example 9, 6-(3,4-Dihydro-4-methanesulfonyl-1,4(2H)-benzoxazin-6-yl)-2,3,4,5-tetrahydro-2-methylpyridazin-3-one] |  | 62 | 
16 | 630 | O=C1CCC(c2ccc3c(c2)NC(=O)CO3)=NN1 [Example 20, 6-(3,4-Dihydro-3-oxo-1,4(2H)-benzoxazin-6-yl)-2,3,4,5-tetrahydropyridazin-3-one] |  | 71 | 
17 | 100 | CC(=O)N1CCOc2ccc(C3=NNC(=O)CC3)cc21 [Example 13, 6-(4-Acetyl-3,4-dihydro-1,4(2H)-benzoxazin-6-yl)-2,3,4,5-tetrahydropyridazin-3-one] |  | 71 | 

Row | IC50 [1] [µM] | Structure (SMILES) | change in vivo at 0.47 mg/kg (adult mongrel dogs) [%] | change in vivo at 1.87 mg/kg (adult mongrel dogs) [%] | change in vivo at 0.075 mg/kg (adult mongrel dogs) [%]
18 | 56 | Cc1cc2c(cc1C1=NNC(=O)CC1)N(C)C(=O)CO2 [Example 29, 6-(3,4-Dihydro-4,7-dimethyl-3-oxo-1,4(2H)-benzoxazin-6-yl)-2,3,4,5-tetrahydropyridazin-3-one] | 12 |  | 
19 | 6 | CC1CC(=O)NN=C1c1ccc2c(c1)N(C)C(=O)C(C)O2 (centres unmarked) [Example 27, 6-(3,4-Dihydro-2,4-dimethyl-3-oxo-1,4(2H)-benzoxazin-6-yl)-2,3,4,5-tetrahydro-5-methylpyridazin-3-one] | 117 |  | 
20 | 30 | Cc1cc2c(cc1C1=NNC(=O)CC1)N(C)C(=O)C(C)O2 (racemic) [Example 33, 6-(3,4-Dihydro-2,4,7-trimethyl-3-oxo-1,4(2H)-benzoxazin-6-yl)-2,3,4,5-tetrahydropyridazin-3-one] | 8 |  | 
21 | 25 | O=C1CCC(c2ccc3c(c2)NC(=O)CS3)=NN1 [Example 53, 6-(3,4-Dihydro-3-oxo-1,4[2H]-benzothiazin-6-yl)-2,3,4,5-tetrahydropyridazin-3-one] |  |  | 21
22 |  | Cc1cc2c(c(C3=NNC(=O)CC3C)c1)OCCN2 (centres unmarked) [Example 42, 6-(3,4-Dihydro-6-methyl-1,4(2H)-benzoxazin-8-yl)-2,3,4,5-tetrahydro-5-methylpyridazin-3-one] | 15 |  | 
23 | 8 | CC1CC(=O)NN=C1c1ccc2c(c1)NCCO2 (racemic) [Example 15, 6-(3,4-Dihydro-1,4(2H)-benzoxazin-6-yl)-2,3,4,5-tetrahydro-5-methylpyridazin-3-one] |  | 125 | 
24 | 26 | Cc1cc2c(c(C3=NNC(=O)CC3C)c1)OCC(=O)N2 (centres unmarked) [Example 40, 6-(3,4-Dihydro-6-methyl-3-oxo-1,4(2H)-benzoxazin-8-yl)-2,3,4,5-tetrahydro-5-methylpyridazin-3-one] | 22 |  | 
25 | 2 | CC1CC(=O)NN=C1c1ccc2c(c1)NC(=O)CO2 (racemic) [Example 22, 6-(3,4-Dihydro-3-oxo-1,4(2H)-benzoxazin-6-yl)-2,3,4,5-tetrahydro-5-methylpyridazin-3-one] | 136 |  | 
26 | 28 | Cc1cc(C2=NNC(=O)CC2)c2c(c1)N(C)C(=O)CO2 [Example 39, 6-(3,4-Dihydro-4,6-dimethyl-3-oxo-1,4(2H)-benzoxazin-8-yl)-2,3,4,5-tetrahydropyridazin-3-one] | 18 |  | 
27 | 80 | COc1ccc(C(=O)N2CCOc3ccc(C4=NNC(=O)CC4)cc32)cc1OC [Example 14, 6-(3,4-Dihydro-4-(3,4-dimethoxyphenylcarbonyl)-1,4(2H)-benzoxazin-6-yl)-2,3,4,5-tetrahydropyridazin-3-one] |  | 30 | 
28 | 15 | Cc1cc2c(cc1C1=NNC(=O)CC1)NC(=O)CO2 [Example 28, 6-(3,4-Dihydro-7-methyl-3-oxo-1,4(2H)-benzoxazin-6-yl)-2,3,4,5-tetrahydropyridazin-3-one] | 46 |  | 
29 | 8 | CC1CC(=O)NN=C1c1ccc2c(c1)N(C)C(=O)CO2 (racemic) [Example 23, 6-(3,4-Dihydro-4-methyl-3-oxo-1,4(2H)-benzoxazin-6-yl)-2,3,4,5-tetrahydro-5-methylpyridazin-3-one] | 134 |  | 
30 | 40 | CC1CNc2cc(C3=NNC(=O)CC3C)ccc2O1 (centres unmarked) [Example 19, 6-(3,4-Dihydro-2-methyl-1,4(2H)-benzoxazin-6-yl)-2,3,4,5-tetrahydro-5-methylpyridazin-3-one] | 98 |  | 
31 | 18 | CN1C(=O)COc2ccc(C3=NNC(=O)CC3)cc21 [Example 21, 6-(3,4-Dihydro-4-methyl-3-oxo-1,4(2H)-benzoxazin-6-yl)-2,3,4,5-tetrahydropyridazin-3-one] | 74 |  | 
32 | 20 | Cc1cc2c(cc1C1=NNC(=O)CC1C)NC(=O)CO2 (racemic) [Example 30, 6-(3,4-Dihydro-7-methyl-3-oxo-1,4(2H)-benzoxazin-6-yl)-2,3,4,5-tetrahydro-5-methylpyridazin-3-one] | 124 |  | 
33 |  | C=CCN1N=C(c2ccc3c(c2)N(S(C)(=O)=O)CCO3)CCC1=O [Example 11, 6-(3,4-Dihydro-4-methanesulfonyl-1,4(2H)-benzoxazin-6-yl)-2,3,4,5-tetrahydro-2-(2-propenyl)pyridazin-3-one] |  | 41 | 

— patent publication US5081242A, “6-benzoxazinyl- and 6-benzothiazinyl 2,3,4,5-tetrahydropyridazin-3-ones” (Ortho Pharmaceutical Corporation, priority 1991, dated 1992)
